Measurements published in PMC9101642 (Molecules, 2022).
Marks after values point to notes of the source that are not given here.

Columns and labels:
[1] = rat, in vivo
MCF-7 cells = test: Cell cycle distribution by flow cytometry; type: cell-based, human; conditions: 24 h
[2] = MTT antiproliferative assay (neutral control); conditions: human, MRC-5 lung fibroblast cells
ERβ = ERβ (Homo sapiens, UniProt Q92731); test: Fluorescence polarization competition assay: antagonistic potency and relative binding affinity
ERβ, sequence (Q92731 whole entry): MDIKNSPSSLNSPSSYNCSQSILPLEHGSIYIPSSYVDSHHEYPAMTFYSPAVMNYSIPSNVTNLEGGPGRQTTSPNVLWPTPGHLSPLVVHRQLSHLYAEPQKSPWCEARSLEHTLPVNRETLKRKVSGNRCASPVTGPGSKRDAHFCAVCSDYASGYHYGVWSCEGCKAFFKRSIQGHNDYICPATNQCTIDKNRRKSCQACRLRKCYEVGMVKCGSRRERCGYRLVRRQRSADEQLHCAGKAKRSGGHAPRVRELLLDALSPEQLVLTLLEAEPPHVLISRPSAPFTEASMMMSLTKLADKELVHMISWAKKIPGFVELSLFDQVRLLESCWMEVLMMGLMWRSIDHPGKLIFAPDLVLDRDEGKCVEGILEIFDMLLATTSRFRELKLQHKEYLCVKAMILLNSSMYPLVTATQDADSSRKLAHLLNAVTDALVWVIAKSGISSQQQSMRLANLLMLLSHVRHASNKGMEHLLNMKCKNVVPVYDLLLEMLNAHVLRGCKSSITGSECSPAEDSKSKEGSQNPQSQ

[3] = test system: progesterone receptor (PR); test: ERα functional antagonism cell assay (PR as biomarker) in MCF-7; type: cell-based; conditions: Homo sapiens, MCF7; progesterone receptor as biomarker for ERα antagonism in MCF-7
MCF-7 cell lines = test: MTT antiproliferative assay; type: cell-based, human
[4] = Lipophilicity by shake-flask method; conditions: n-octanol/phosphate buffer, pH 7.4
MDA-MB-231 cell lines = test: MTT antiproliferative assay; type: cell-based, human; conditions: Homo sapiens, MDA-MB-231; growth inhibition, 48 h; read-out: MDA-MB-231 (IC50 nM)
[5] = test system: p53 promoter activity (p21 promoter); test: qChIP of ERα-p53 interaction on the p21 promoter in MCF-7; type: cell-based, human
[6] = test system: MNU-induced breast cancer; test: In vivo anticancer screening, MNU-induced mammary tumorigenesis; parameters: species or system female Wistar rats
ERα = biological target: T1, ERα (Homo sapiens, UniProt P03372); test: ERα down-regulation immunofluorescence assay in MCF-7; type: cell-based; conditions: ERα downregulation measured in MCF-7; read-out: MCF-7 DR (IC50 nM)
T1 sequence (P03372 1-595): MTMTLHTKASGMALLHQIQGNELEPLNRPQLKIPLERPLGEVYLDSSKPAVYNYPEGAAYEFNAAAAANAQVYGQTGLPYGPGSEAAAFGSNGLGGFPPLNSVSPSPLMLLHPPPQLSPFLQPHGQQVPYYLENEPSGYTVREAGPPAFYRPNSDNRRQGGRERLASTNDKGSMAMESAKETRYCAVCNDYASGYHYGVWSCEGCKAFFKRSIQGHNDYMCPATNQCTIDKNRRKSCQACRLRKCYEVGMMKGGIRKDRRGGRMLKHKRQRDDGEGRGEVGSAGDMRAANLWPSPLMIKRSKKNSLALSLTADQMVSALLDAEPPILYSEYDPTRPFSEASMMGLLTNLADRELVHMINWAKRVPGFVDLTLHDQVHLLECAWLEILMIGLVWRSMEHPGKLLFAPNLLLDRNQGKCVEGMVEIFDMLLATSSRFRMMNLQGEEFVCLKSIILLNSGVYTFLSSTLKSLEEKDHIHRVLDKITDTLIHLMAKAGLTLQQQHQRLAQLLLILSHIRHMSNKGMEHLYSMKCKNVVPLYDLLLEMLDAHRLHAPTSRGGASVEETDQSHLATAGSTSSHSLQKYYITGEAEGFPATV

[7] = Liver oxidative stress markers after treatment of MNU-induced rats; type: in vivo, Wistar rats; parameters: CAT: unit not given here; conditions: liver; for CAT: catalase activity; for GSH: reduced glutathione; for SOD (U/mg): superoxide dismutase activity
Procedure, shortened: (§1)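 Mammary tumours induced in rats by MNU 50 mg/kg i.p. at day 50; after two weeks, compounds given orally at 5 or 50 mg/kg once daily for six weeks. Serum AST, ALT (340 nm), ALP (405 nm) and bilirubin measured; liver homogenate GSH, CAT, MDA by colorimetry; plasma binding by ultrafiltration at 37°C with BCA protein read-out.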

[8] = Serum biochemical markers after treatment of MNU-induced rats; type: in vivo, Wistar rats; conditions: for ALP (A/L) / ALT (A/L) / AST (U/L) / γ-GT (U/L): serum; for TBC: total bilirubin content
Procedure, shortened: as §1

[9] = Pharmacokinetics study, oral bioavailability; conditions: rat
[10] = dose 50 mg/kg (compounds per os after MNU; MNU alone i.p.)

## CC(=O)c1cc(C(=O)O[C@@H]2/C=C/C(=O)O[C@@H](O)CCC/C=C/[C@@H]3C[C@H](O)C[C@H]32)ccc1OCCN1CC(C(=O)O)=CCC1=O [Compound 3DPQ-9, 1-(2-(2-acetyl-4-((((1R,2E,6R,10E,11aS,13S,14aR)-6,13-dihydroxy-4-oxo-4,6,7,8,9,11a,12,13,14,14a-decahydro-1H-cyclopenta[f][1]oxacyclotridecin-1-yl)oxy)carbonyl)phenoxy)ethyl)-6-oxo-1,2,5,6-tetrahydropyridine-3-carboxylic acid]
[1]
  WL after MFD (day 1, mg): 315.54 ± 0.65 mg
MCF-7 cells; 0.1 nM
  Cell Cycle (%) G0/G1: 71.47 ± 0.99 *^,†,‡,§ %
  Cell Cycle (%) G2/M: 15.56 ± 2.65 *^,†,‡,§ %
  Cell Cycle (%) S: 12.97 ± 1.65 *^,†,‡,§ %
MCF-7 cells; 1 nM
  Cell Cycle (%) G0/G1: 75.93 ± 152 *^,†,‡,§ %
  Cell Cycle (%) G2/M: 10.40 ± 3.54 *^,†,‡,§ %
  Cell Cycle (%) S: 13.68 ± 1.74 *^,†,‡,§ %
[2]
  IC50 at 48 h: > 0.1 µM
ERβ; calculated antagonistic (inhibitory) constant, read-out: Ka ERβ
  Ki: 0.0469 µM
ERβ; concentration that antagonizes 50% of ERβ signaling activity, read-out: ERβ (IC50 nM)
  IC50: 83.56 ± 0.46 nM
ERβ; log of % relative binding affinity, estradiol = 100%
  logRBA ERβ: 0.03 ^†,‡,§
[3]
  IC50: > 100 nM
MCF-7 cell lines; Homo sapiens, MCF7, growth inhibition, 48 h, read-out: MCF-7 (IC50 nM)
  IC50: 0.62 ± 0.15 nM
MCF-7 cell lines; ratio of IC50 values
  MCF-7 antiproliferative potency, fold higher than Ral: 1.46 fold
  MCF-7 antiproliferative potency, fold lower than 3DPQ-12: 1.09 fold
[4]
  logD at 30 min: 2.02
MDA-MB-231 cell lines
  IC50: 81.63 ± 0.42 nM
[5]; higher concentration (1 nM)
  p53 promoter activity, fold higher than the one provoked by Ral: 0.66 fold
[5]; lower concentration (0.1 nM)
  p53 promoter activity, fold higher than the one provoked by Ral: 0.68 fold
[6]; dose 5 mg/kg per os after MNU
  Tumor Burden (week): 2.28 ± 0.47 *^,†,‡,‖ week
  Tumor Latency (week): 12 *^,†,‡ week
  Tumor Volume (mm^3): 0.77 ± 0.32 *^,†,‡,‖ mm^3
[6]; [10]
  Tumor Burden (week): 1.14 ± 0.65 *^,†,§,┴ week
  Tumor Latency (week): 15 *^,†,§ week
  Tumor Volume (mm^3): 0.40 ± 0.43 *^,†,§,┴ mm^3
ERα
  IC50: > 100 nM
[7]; dose 5 mg/kg
  CAT: 10.83±0.46
  TBARS: 0.96 nmol/mg
  GSH: 8.66 mg/g
  SOD (U/mg): 7.74±0.37 U/mg
[7]; dose 50 mg/kg
  CAT: 13.32±0.54
  TBARS: 0.96 ± 0.24 nmol/mg
  GSH: 8.89 mg/g
  SOD (U/mg): 14.43±0.35 U/mg
[7]; total protein content, dose 50 mg/kg
  TP: 39.43 g/L
[8]; dose 5 mg/kg
  ALP (A/L): 125.54±0.21 A/L
  ALT (A/L): 46.58±0.94 A/L
  AST (U/L): 64.52±0.43 U/L
  γ-GT (U/L): 10.32 U/L
  TBC: 22.33
[8]; dose 50 mg/kg
  ALP (A/L): 139.42±0.31 A/L
  ALT (A/L): 51.95±0.86 A/L
  AST (U/L): 69.76±0.74 U/L
  γ-GT (U/L): 12.36±0.53 U/L
  TBC: 24.46
[9]; oral 5 mg/kg
  BIO: 94 ^‡
[9]; oral 50 mg/kg
  BIO: 97
